Laboratory results as given in US4988828A, “Phenoxypropyl derivatives” (Fujirebio Kabushiki Kaisha, priority 1987, dated 1991).

What was measured:
[1] = system: stomach; test: Gastric mucosal protecting activity (ulcer caused by 0.4N-HCl+50% ethanol); type: in vivo, rat (male Donryu); conditions: 30 minutes before necrotizing substance
Experimental: Male Donryu rats (150 to 250 g) which had been caused to fast for 24 hours were used. The test compound was administered in a dose of 10 mg/kg. p.o., and 30 minutes later, a necrotizing substance (0.4N-HCl+50% ethanol) was administered orally in a dose of 5 ml/kg. One hour after the administration of the necrotizing substance, the stomach was dissected out and fixed with formalin. The area of ulcer which occurred was measured, and by comparison with a control group, the percent inhibition of the test compound was determined.

[2] = target: T1, histamine H2 receptor (Cavia porcellus, UniProt P47747); test: Histamine H2 antagonizing activity (isolated guinea pig right atrium, histamine dose-response); design: species or system guinea pig (Hartley-strain); conditions: 32° C., test compound 1×10^-6, 1×10^-7 M, 10 min before histamine, Van Rossum method, read-out: pA2 (converted)
T1 construct: The right atrium was isolated in the Krebs-Henselite solution; from tissue; host or cells: isolated right atrium of male Hartley-strain guinea pigs
T1 sequence (P47747 whole entry): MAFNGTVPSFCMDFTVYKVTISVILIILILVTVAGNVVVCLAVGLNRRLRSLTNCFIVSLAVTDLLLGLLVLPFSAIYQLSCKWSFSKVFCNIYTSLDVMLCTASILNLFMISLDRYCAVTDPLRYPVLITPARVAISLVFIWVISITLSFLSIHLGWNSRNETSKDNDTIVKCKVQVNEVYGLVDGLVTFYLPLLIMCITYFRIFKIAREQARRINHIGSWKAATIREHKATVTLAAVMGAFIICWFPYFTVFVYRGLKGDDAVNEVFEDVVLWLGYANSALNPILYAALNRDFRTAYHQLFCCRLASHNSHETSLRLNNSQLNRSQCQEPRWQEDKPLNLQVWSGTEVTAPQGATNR
Experimental: Hartley-strain guinea pigs (male, weight 300 to 350 g) were killed by a blow on the head, and the heart was extracted. The right atrium was isolated in the Krebs-Henselite solution through which a mixed gas (O2 95%, CO2 5%) was circulated. The right atrium was suspended in an organ bath (30 ml) filled with the Krebs-Henselite solution kept at 32° C. The mixed gas was circulated through the organ bath, and a diastolic tension of 1 g was maintained. Contraction of the right atrium was recorded by a force-displacement transducer, and the heart rate was counted by a heart rate meter interlocked with the transducer.
Histamine (used in the form of dihydrochloride) was added cumulatively to the organ bath in a concentration of 1×10^-8 M to 3×10^-5 M. Thus, the dose-response curve of histamine was obtained. The inside of the organ bath was washed several times, and the test compound (1×10^-6, 1×10^-7 M) was added to the organ bath. Ten minutes later, the dose-response curve of histamine in the presence of the test compound was obtained.
The pA2 value of the test compound was determined from the first histamine dose-response curve and the histamine dose-response curve in the presence of the test compound by the method of J. M. Van Rossum (Arch. Int. Pharmacodyn. Ther., 143-299, 1963).

SMILES	Percent inhibition (area of ulcer, vs control group) ([1]; 10 mg/kg p.o.)	Kb [2] [µM]	Percent inhibition (area of ulcer, vs control group) ([1]; 30 mg/kg p.o.) [%]
O=C(CSCc1ccco1)NCCCOc1cccc(CN2CCCCC2)c1 [Example 12, N-(3-[3-(piperidinomethyl)phenoxy]propyl)-2-(furfurylthio)acetamide]	63%	–	–
O=C(C[S+]([O-])Cc1ccco1)NCCCOc1cccc(CN2CCCCC2)c1 (centres unmarked) [Example 13, N-{3-[3-(piperidinomethyl)phenoxy]propyl}-2-(furfurylsulfinyl)acetamide]	72%	0.0794	–
CN/C(=N/CCSCc1nc[nH]c1C)NC#N [cimetidine, reference compound]	No inhibition was observed	–	11
